From patent US7282576B2, “Coactivators in the diagnosis and treatment of breast cancer” (Georgetown University, priority 2001, dated 2007)

Columns and labels:
[1] = test system: human FGF-BP gene promoter; assay: EGF activation of FGF-BP gene promoter luciferase reporter in ME-180 cells; type: cell-based; details: EGF 5 ng/ml, 18 h
Experimental: ME-180 cells were plated at a density of 5×10^5 cells per well and cultured for 24 h in IMEM supplemented with 5% dextran-charcoal-treated FBS. They were then incubated for 3 h in IMEM supplemented with Lipofectamine Plus and expression and reporter plasmids. Cells were washed and then incubated in IMEM for an additional 3 h before incubation for 18 h with EGF (5 ng/ml) in serum-free IMEM and subsequent lysis. Because of high background induction of pRL-CMV expression by EGF, firefly luciferase activity was normalized by protein concentration as described previously (32).
Cells were transfected with 3 μg of either pcDNA3, pcDNA3-AIB1, or pcDNA3-AIB1-Δ3, together with a luciferase reporter plasmid containing the human FGF-BP gene promoter (1 μg) (32) (FIG. 6). After incubation of cells for 18 h in the absence or presence of EGF (5 ng/ml) in serum-free medium, cell extracts were prepared and assayed for luciferase activity. Activity was normalized by protein concentration, and the normalized activity values were then expressed relative to that of cells transfected with pcDNA3 and not exposed to EGF. Data are means±SEM of values from three independent experiments, each performed in triplicate. *P<0.01 versus the corresponding value for control cells.

[2] = biological target: T1, human estrogen receptor α (Homo sapiens, UniProt P03372); assay: Transient transfection ERE-luciferase reporter assay in CHO cells; type: cell-based, hamster
T1 construct: expressed in transfected cells; host or cells: CHO cells
T1 sequence (P03372 1-595): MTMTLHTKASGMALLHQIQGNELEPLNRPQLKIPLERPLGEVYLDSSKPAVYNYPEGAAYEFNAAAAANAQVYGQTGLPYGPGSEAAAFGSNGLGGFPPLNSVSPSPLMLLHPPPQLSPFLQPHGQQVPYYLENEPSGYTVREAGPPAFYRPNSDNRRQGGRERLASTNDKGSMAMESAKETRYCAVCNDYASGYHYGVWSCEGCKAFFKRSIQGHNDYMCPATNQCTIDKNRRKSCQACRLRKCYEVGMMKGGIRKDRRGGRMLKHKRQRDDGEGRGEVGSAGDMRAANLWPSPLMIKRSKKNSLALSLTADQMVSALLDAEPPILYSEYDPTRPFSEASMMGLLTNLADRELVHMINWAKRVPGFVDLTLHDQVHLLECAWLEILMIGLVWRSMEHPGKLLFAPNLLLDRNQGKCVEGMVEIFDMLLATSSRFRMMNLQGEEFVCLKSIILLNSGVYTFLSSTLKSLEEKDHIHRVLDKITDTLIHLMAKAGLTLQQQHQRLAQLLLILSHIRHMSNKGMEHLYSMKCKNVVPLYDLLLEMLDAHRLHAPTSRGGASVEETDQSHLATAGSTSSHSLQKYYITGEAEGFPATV
Experimental: To verify that the Δ3-AIB1 mRNA was translated in vivo, transient transfection of CHO cells (FIG. 2; see FIG. 4a) or COS-1 cells (see FIG. 5a) with the Δ3-AIB1 cDNA was performed. COS-1 and CHO cells were plated at densities of 2×10^5 and 5×10^5 cells per well, respectively, in six-well plates, and were cultured for 24 h at 37° C. under 5% CO2 in IMEM or Ham's F-12, respectively, supplemented with 5% FBS that had been treated with dextran-coated charcoal. The medium was then replaced with IMEM containing Lipofectamine Plus (Gibco BRL) and expression and reporter plasmids as indicated. After incubation for 3 h, the medium was replaced with IMEM (COS-1 cells) or Ham's F-12 (CHO cells), each containing 5% dextran-coated charcoal-treated FBS and nuclear receptor ligands. Cells were incubated for 24 h and then disrupted in passive lysis buffer (Promega). Portions (20 μl) of the resulting cell extract were assayed for both firefly and renilla luciferase activities with the Dual-Luciferase reporter assay system (Promega).
The effect of the deletion of the bHLH and PAS A domains was next examined in Δ3-AIB1 on protein function. AIB1 acts as a coactivator for several nuclear receptors, including those for estrogen and progesterone, which are important in breast carcinogenesis. […]

Row | Substance | increase of EGF induction of FGF-BP promoter reporter activity ([1]; ME-180 cells, 3 μg vector) | factor of potentiation of the estrogen response at approximately equal amounts of recombinant protein ([2]; 0.3 μg AIB1 vector vs 3 μg Δ3-AIB1 vector) | increase in estrogen-induced luciferase activity ([2]; 3 μg expression vector, 10 nM estradiol-17β, 24 h) | increase in FGF-BP promoter reporter activity ([1]; ME-180 control cells with empty expression vector)
1 | AIB1: 156-kDa full-length nuclear receptor coactivator amplified in breast cancer 1, expressed from pcDNA3-AIB1 | increased slightly | 1.1 | 1.4 fold | –
2 | EGF: epidermal growth factor [reference compound] | – | – | – | 2.5 fold
